Experimental data published in patent US12419305B2, “Antimicrobial compositions” (Firmenich SA, priority 2018, dated 2025).
Like-named read-outs stand apart in the source and are kept apart here.

Legend:
E. coli ATCC 10536 = experiment: BCT test (bacterial contact time), 45 s, log reduction / effect fraction; CI by Compusyn; assay type: cell-based, Escherichia coli; conditions: Escherichia coli, ATCC10536, 45 s; for log reduction at […] strength: dose […] w/v
Procedure, shortened: (§1)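 Ethanol solutions of ingredient blends and single ingredients, 5 replicates; bacteria ~1×10^8/mL added 1:1; contact 45 or 60 s as listed; three 1:10 then 17 1:2 dilutions; regrowth 37° C, OD600; viable log CFU → log reduction vs ethanol. CI <0.9 = synergy.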

[1] = system: Pseudomonas aeruginosa ATCC 15442; experiment: BCT test (bacterial contact time), 60 s, log reduction / effect fraction; CI by Compusyn; assay type: cell-based; conditions: Pseudomonas aeruginosa, ATCC15442, 1 min, BCT 60 s, in 25% EtOH
Procedure, shortened: as §1

[2] = system: Salmonella enterica ATCC 10708; experiment: as above; assay type: cell-based; conditions: Salmonella enterica, ATCC10708, 1 min
Procedure, shortened: as §1

S. haemolyticus 114126 = experiment: BCT test (bacterial contact time), 120 s, log reduction / effect fraction; CI by Compusyn; assay type: cell-based; conditions: Staphylococcus haemolyticus, 114126, 2 min
Procedure, shortened: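 S. haemolyticus 114126 (skin isolate), grown to OD600 1-2 in BHI-TW80 and resuspended at 1-5×10^8 CFU/mL, was mixed 1:1 with ethanolic perfume compositions or ethanol alone for 45, 60 or 120 s. Viable counts came from serial-dilution regrowth (37 °C, turbidity OD600), giving log reduction versus ethanol control; CI was computed from concentration–effect fraction pairs.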

S. aureus ATCC 6538 = experiment: BCT test (bacterial contact time), 60 s, log reduction / effect fraction; CI by Compusyn; assay type: cell-based, Staphylococcus aureus; conditions: Staphylococcus aureus, ATCC6538, 1 min, in 25% EtOH
Procedure, shortened: as §1

CC(C=O)Cc1ccc2c(c1)OCO2 (centres unmarked) [Heliopropanal, 3-(1,3-Benzodioxol-5-yl)-2-methylpropanal] was tested, and the log reduction at 0.1 % strength (E. coli ATCC 10536; dose 0.100 % w/v, 45 s, in 20% EtOH) was 1, the log reduction at 0.1 % strength (E. coli ATCC 10536; dose 0.1% w/v, contact 45 s, 20% EtOH) was 0.5 and the log reduction at 0.12 % strength (E. coli ATCC 10536; dose 0.120 % w/v, 45 s, in 20% EtOH) was 2.1. For the same molecule, the log reduction at 0.12 % strength (E. coli ATCC 10536; dose 0.12% w/v, contact 45 s, 20% EtOH) was 1.1, the log reduction at 0.14 % strength (E. coli ATCC 10536; dose 0.140 % w/v, 45 s, in 20% EtOH) was 4.3 and the log reduction at 0.14 % strength (E. coli ATCC 10536; dose 0.14% w/v, contact 45 s, 20% EtOH) was 3.1. For the same molecule, the log reduction at 0.16 % strength (E. coli ATCC 10536; dose 0.160 % w/v, 45 s, in 20% EtOH) was 7.3, the log reduction at 0.16 % strength (E. coli ATCC 10536; dose 0.16% w/v, contact 45 s, 20% EtOH) was 7 and the log reduction at […] strength (E. coli ATCC 10536; 45 s, in 20% EtOH) was 7.3. The log reduction at […] strength (E. coli ATCC 10536; contact 45 s, 20% EtOH) was 7.4, the log reduction at 0.175 % strength ([1]; Dose 0.175 % w/v) was 4.8 and the log reduction at 0.2 % strength ([1]; Dose 0.2 % w/v) was 7.2. The log reduction at 0.25 % strength ([1]; Dose 0.25 % w/v) was 7.4, the log reduction at 0.05 % strength [2] was 0 and the log reduction at 0.1 % strength [2] was 0.8. The log reduction at 0.12 % strength [2] was 2.9, the log reduction at 0.13 % strength [2] was 3.9 and the log reduction at 0.14 % strength [2] was 5.5. The log reduction at 0.175 % strength (S. haemolyticus 114126) was 0.1, the log reduction at 0.25 % strength (S. haemolyticus 114126) was 0.3 and the log reduction at 0.3 % strength (S. haemolyticus 114126) was 1.5. The log reduction at 0.4 % strength (S. haemolyticus 114126) was 3.2, the log reduction at 0.45 % strength (S. haemolyticus 114126) was 5.2 and the log reduction at 0.15 % strength (S. aureus ATCC 6538; Dose 0.15 % w/v, BCT 60 s) was 0.4. The log reduction at 0.175 % strength (S. aureus ATCC 6538; Dose 0.175 % w/v, BCT 60 s) was 0.4, the log reduction at 0.2 % strength (S. aureus ATCC 6538; Dose 0.200 % w/v, BCT 60 s) was 1.3 and the log reduction at 0.225 % strength (S. aureus ATCC 6538; Dose 0.225 % w/v, BCT 60 s) was 3.5. For the same molecule, the log reduction at 0.25 % strength (S. aureus ATCC 6538; Dose 0.25 % w/v, BCT 60 s) was 7.3, the log reduction at 0.15 % strength (S. aureus ATCC 6538; dose 0.150 % w/v, 60 s) was 0.4 and the log reduction at 0.2 % strength (S. aureus ATCC 6538; dose 0.200 % w/v, 60 s) was 1.2. For the same molecule, the log reduction at 0.225 % strength (S. aureus ATCC 6538; dose 0.225 % w/v, 60 s) was 4.2, the log reduction at 0.25 % strength (S. aureus ATCC 6538; dose 0.250 % w/v, 60 s) was 7 and the log reduction at 0.3 % strength (S. aureus ATCC 6538; dose 0.300 % w/v, 60 s) was 7.3.
C/C=C/c1ccc(O)c(OC)c1 [Isoeugenol, 2-Methoxy-4-(prop-1-en-1-yl)phenol] gave a log reduction at 0.05 % strength (E. coli ATCC 10536; dose 0.05% w/v, contact 45 s, 20% EtOH) of 0.1, a log reduction at 0.07 % strength (E. coli ATCC 10536; dose 0.07% w/v, contact 45 s, 20% EtOH) of 0.8 and a log reduction at 0.09 % strength (E. coli ATCC 10536; dose 0.09% w/v, contact 45 s, 20% EtOH) of 2.9. The log reduction at 0.1 % strength (E. coli ATCC 10536; dose 0.1% w/v, contact 45 s, 20% EtOH, read-out: Log reduction) was 4.9, the log reduction at 0.12 % strength (E. coli ATCC 10536; dose 0.12% w/v, contact 45 s, 20% EtOH, read-out: Log reduction) was 7.4 and the log reduction at 0.125 % strength ([1]; Dose 0.125 % w/v) was 7.5. The log reduction at 0.15 % strength ([1]; Dose 0.15 % w/v) was 7.5, the log reduction at 0.05 % strength ([2]; Dose 0.05 % w/v, BCT 60 s, in 25% EtOH, read-out: Log reduction) was -0.1 and the log reduction at 0.06 % strength ([2]; Dose 0.06 % w/v, BCT 60 s, in 25% EtOH) was 0. The log reduction at 0.075 % strength ([2]; Dose 0.075 % w/v, BCT 60 s, in 25% EtOH) was 4, the log reduction at 0.08 % strength ([2]; Dose 0.08 % w/v, BCT 60 s, in 25% EtOH) was 4 and the log reduction at 0.08 % strength ([2]; Dose 0.080 % w/v, BCT 60 s, in 25% EtOH) was 0.8. For the same molecule, the log reduction at 0.1 % strength ([2]; Dose 0.1 % w/v, BCT 60 s, in 25% EtOH, read-out: Log reduction) was 2.6, the log reduction at 0.1 % strength ([2]; Dose 0.10 % w/v, BCT 60 s, in 25% EtOH, read-out: Log reduction) was 6.9 and the log reduction at 0.11 % strength ([2]; Dose 0.110 % w/v, BCT 60 s, in 25% EtOH) was 7.5. For the same molecule, the log reduction at 0.12 % strength ([2]; Dose 0.120 % w/v, BCT 60 s, in 25% EtOH, read-out: Log reduction) was 7.2, the log reduction at 0.15 % strength (S. haemolyticus 114126; dose 0.15% w/v, contact 120 s, 25% EtOH) was -0.3 and the log reduction at 0.2 % strength (S. haemolyticus 114126; dose 0.2% w/v, contact 120 s, 25% EtOH) was 0.5. For the same molecule, the log reduction at 0.25 % strength (S. haemolyticus 114126; dose 0.25% w/v, contact 120 s, 25% EtOH, read-out: Log reduction) was 2.2, the log reduction at 0.3 % strength (S. haemolyticus 114126; dose 0.3% w/v, contact 120 s, 25% EtOH, read-out: Log reduction) was 3.7 and the log reduction at 0.35 % strength (S. haemolyticus 114126; dose 0.35% w/v, contact 120 s, 25% EtOH) was 5.6. The log reduction at 0.4 % strength (S. haemolyticus 114126; dose 0.4% w/v, contact 120 s, 25% EtOH, read-out: Log reduction) was 7.2, the log reduction at 0.1 % strength (S. aureus ATCC 6538; dose 0.100 % w/v, 60 s) was 1.1 and the log reduction at 0.125 % strength (S. aureus ATCC 6538; dose 0.125 % w/v, 60 s) was 3.7. For the same molecule, the log reduction at 0.15 % strength (S. aureus ATCC 6538; dose 0.150 % w/v, 60 s, read-out: Log reduction) was 5.6 and the log reduction at 0.2 % strength (S. aureus ATCC 6538; dose 0.200 % w/v, 60 s, read-out: Log reduction) was 7.5.
